Source: PMC4821601, “The Interactions of P-Glycoprotein with Antimalarial Drugs, Including Substrate Affinity, Inhibition and Regulation” (PLoS ONE, 2016)
Like-named read-outs stand apart in the source and are kept apart here. Marks after values point to notes of the source that are not given here.

How the values were obtained:
P-gp [1] = settings: cited from earlier work
[2] = cited from earlier work
[3] = Bidirectional transport (Papp, efflux ratio) of antimalarials through Caco-2 cell monolayers; type: in vitro ADME, human; settings: human; for Papp at 120 min: Caco-2, Caco-2 monolayers
Method: (§1) The initial experiments were conducted in mid-40s passage cells and repeated in early 80s passage Caco-2 cells. […] In order to maintain equivalent transport medium (HBSS/HBSS with inhibitor) level both outside and inside the chambers, 300 μL was used as medium in the apical chambers and 600 μL in the basolateral chambers. […] Drugs were co-incubated with MRCP, BCRP and ATP hydrolysis blockers to determine the involvement of other efflux mechanisms. Prior to the experiment, the transport medium, HBSS or HBSS with P-gp inhibitors were pre-incubated with the cells for 30 minutes. Following incubation, inserts were placed in new well plates and donor chamber is replaced with drug or drug with inhibitor and the receiver chamber with blank HBSS or HBSS with inhibitor. Transport medium was collected from the receiver chamber after stirring at time intervals of 30, 60, 90 and 120 minutes and was replaced with the same volume of fresh HBSS, or HBSS with inhibitor, when P-gp inhibitors were used in the study. At the end of the experiment 100 μL of medium was removed from the donor chamber in addition to medium collected from the receiver chamber during the study. The cells were then washed thoroughly in cold (4°C) PBS and cell membranes attached to the inserts were sonicated for 10 minutes in a sonicating water bath and centrifuged at 10,000 g for 10 minutes. Supernatant was frozen at -80°C until assayed. […] CL.vol=[…].vol = clearance volume (mL), n = time (min), Aa = amount in acceptor compartment at time n (pmols), Cd0 = concentration in donor compartment at time zero (nM), Vd = volume of the donor compartment (mL), Ca = concentration in acceptor compartment at the previous time point (nM), Vs = sample volume of previous time point (mL), Ac = amount of compound associated with the cells (pmol), Nfin = final time point (min). […] The cleared volume was plotted against time and the slope of the regression line was divided by the surface area to obtain the Papp values. […] The method from Davis and colleagues was adopted with slight modifications. Separations were performed using an Apollo C18 (5 μm, 4.6x150mm) column attached to a matched guard column (5 μm, 4.6x5.5 mm). […] The injection volume was 40 μL and column oven was maintained at 35°C. The analytes were detected at 222 nm and the retention time was 5.6 minutes. Assay developed by Pussard and co-workers were used and slight modifications were done to adjust laboratory conditions. Separation was done using a Prevail C18 (3 μm, 4.6x150mm) column attached to a Direct-connect^TM universal column prefilter. The mobile phase consisted of 20 mM (w/v) KH2PO4 in deionized water at pH 3.0 and acetonitrile (82:18) v/v. […] The injection volume was 40 μL and column oven was maintained at 30°C. The analytes were detected at 343 nm with a retention time of 2.4 minutes. […] Separations were performed using an Apollo C18 (5 μm, 4.6x150mm) column attached to matched guard column (5 μm, 4.6x5.5mm). […] The injection volume was 40 μL and column oven was maintained at 30°C. The analytes were detected at 660 nm with a retention time of 3.8 minutes. A 40 μL sample was spiked with 5 μL 0.5 mM artemisinin internal standard. […] The pipettor was adjusted to the maximum volume (100 μL). […] Pre-treated samples were loaded into the tips by gently aspirating and discarding into the same vial. The process was repeated 10 times in order to increase binding efficiency of drugs to the OMIX 96 C4 matrix. […] The LC-MS method described by […] and co-workers were modified to suit the LC-MS-MS conditions. […] Wexford, Ireland) at 40°C. […] Quantitation was performed in multiple reactions monitoring, MRM mode, using DUIS (ESI^+ and APCI^+) ion sources. […] The optimized mass spectra were acquired with an interface voltage of 4.5 kV, a detector voltage of 1.0 kV, a heat block temperature of 500°C and a desolvation temperature of 160°C.

Caco-2 cell monolayers = experiment: as above; type: in vitro ADME, human
Method: as §1

P-glycoprotein (P-gp) = biological target: T1, P-glycoprotein (P-gp) (Homo sapiens, UniProt P08183); experiment: Bidirectional transport of rhodamine123 through Caco-2 monolayers co-incubated with antimalarials (P-gp inhibitory properties); type: in vitro ADME
T1 construct: In-vitro Caco-2 cell monolayers were used here as a model for potential drug absorption related problems and P-gp mediated transport of drugs; endogenous in cells; host or cells: Caco-2 (human colon carcinoma, ATCC)
Method: The Caco-2 cells were seeded on 0.6 cm^2 […] Millipore PCF™ filter inserts at the cell density of 65,000 cells/cm^2 as done previously in the lab. Briefly, the cells were grown for 21–24 days to allow full maturation and formation of tight monolayers. The initial experiments were conducted in mid-40s passage cells and repeated in early 80s passage Caco-2 cells. The Trans epithelial electrical resistance (TEER) was measured immediately before and after the experiment using an epithelial voltage/ohm meter and an ENDOHM 12 chamber (World precision instruments, Sarasota, FL). TEER values were measured both before and after the study with readings above 300 Ω.cm^2 considered as acceptable for tight junctions. […] In order to maintain equivalent transport medium (HBSS/HBSS with inhibitor) level both outside and inside the chambers, 300 μL was used as medium in the apical chambers and 600 μL in the basolateral chambers. […] Drugs were co-incubated with MRCP, BCRP and ATP hydrolysis blockers to determine the involvement of other efflux mechanisms. Prior to the experiment, the transport medium, HBSS or HBSS with P-gp inhibitors were pre-incubated with the cells for 30 minutes. Following incubation, inserts were placed in new well plates and donor chamber is replaced with drug or drug with inhibitor and the receiver chamber with blank HBSS or HBSS with inhibitor. Transport medium was collected from the receiver chamber after stirring at time intervals of 30, 60, 90 and 120 minutes and was replaced with the same volume of fresh HBSS, or HBSS with inhibitor, when P-gp inhibitors were used in the study. At the end of the experiment 100 μL of medium was removed from the donor chamber in addition to medium collected from the receiver chamber during the study. The cells were then washed thoroughly in cold (4°C) PBS and cell membranes attached to the inserts were sonicated for 10 minutes in a sonicating water bath and centrifuged at 10,000 g for 10 minutes. Supernatant was frozen at -80°C until assayed. The Papp values of three well plates were determined using methods modified from Artursson’s group as described by Crowe and Lemaire.
CL.vol=Aa/{[Cd0×Vd−[Aa+(Ca×Vs)]−(Ac)×n/nfin]/Vd}
CL.vol = clearance volume (mL), n = time (min), Aa = amount in acceptor compartment at time n (pmols), Cd0 = concentration in donor compartment at time zero (nM), Vd = volume of the donor compartment (mL), Ca = concentration in acceptor compartment at the previous time point (nM), Vs = sample volume of previous time point (mL), Ac = amount of compound associated with the cells (pmol), Nfin = final time point (min). Papp = Apparent permeability (cm/sec) Rate of clearance (mL/min)=CL.vol / n Papp (cm/sec)=Rate of clearance / Surface area (cm^2)
The cleared volume was plotted against time and the slope of the regression line was divided by the surface area to obtain the Papp values. […] Mean Papp for Bas-Ap direction was divided by the Ap-Bas direction to obtain the efflux ratio and values above two were considered as drugs having true efflux transport.

P-gp [4] = settings: 20 μM, 96 hours, Caco-2, western blot vs control
Method: Caco-2 cells were seeded in 6 well plates at 10,000 cells/cm^2 for 21 days. Drugs and drug combinations at 20 μM prepared in cell growth medium were added on to the mature cells and exposed for 96 hours. After drug exposure, cells were washed three times using PBS and cell lysate was prepared in lysis buffer. The protein content was quantified using the 96 well micro-Lowry protein assay and regulation of P-gp was determined using western blotting.
The membrane was blocked using 2% casein in TBS and washed with TBST. The primary antibody; Mdr (G-1) mouse monoclonal IgG2b 200 and mouse anti-β actin were used as the antibody for β-actin, the reference protein. The antibody; HRP linked goat anti mouse IgG was used as the secondary antibody. The washed membrane was incubated in a BioRad clarity chemiluminescent substrate and enhancer was read and semi quantified using the BIORAD Chemidoc MPT imager with Image LabTM software.

[5] = tested on: Caco-2 intestinal epithelial cells; set-up: method as in PMID 8773952; settings: earlier report ref 53; cited from earlier work
[6] = summary in abstract, methylene blue depending on the direction of transport, read-out: permeability

T1 sequence (P08183 whole entry): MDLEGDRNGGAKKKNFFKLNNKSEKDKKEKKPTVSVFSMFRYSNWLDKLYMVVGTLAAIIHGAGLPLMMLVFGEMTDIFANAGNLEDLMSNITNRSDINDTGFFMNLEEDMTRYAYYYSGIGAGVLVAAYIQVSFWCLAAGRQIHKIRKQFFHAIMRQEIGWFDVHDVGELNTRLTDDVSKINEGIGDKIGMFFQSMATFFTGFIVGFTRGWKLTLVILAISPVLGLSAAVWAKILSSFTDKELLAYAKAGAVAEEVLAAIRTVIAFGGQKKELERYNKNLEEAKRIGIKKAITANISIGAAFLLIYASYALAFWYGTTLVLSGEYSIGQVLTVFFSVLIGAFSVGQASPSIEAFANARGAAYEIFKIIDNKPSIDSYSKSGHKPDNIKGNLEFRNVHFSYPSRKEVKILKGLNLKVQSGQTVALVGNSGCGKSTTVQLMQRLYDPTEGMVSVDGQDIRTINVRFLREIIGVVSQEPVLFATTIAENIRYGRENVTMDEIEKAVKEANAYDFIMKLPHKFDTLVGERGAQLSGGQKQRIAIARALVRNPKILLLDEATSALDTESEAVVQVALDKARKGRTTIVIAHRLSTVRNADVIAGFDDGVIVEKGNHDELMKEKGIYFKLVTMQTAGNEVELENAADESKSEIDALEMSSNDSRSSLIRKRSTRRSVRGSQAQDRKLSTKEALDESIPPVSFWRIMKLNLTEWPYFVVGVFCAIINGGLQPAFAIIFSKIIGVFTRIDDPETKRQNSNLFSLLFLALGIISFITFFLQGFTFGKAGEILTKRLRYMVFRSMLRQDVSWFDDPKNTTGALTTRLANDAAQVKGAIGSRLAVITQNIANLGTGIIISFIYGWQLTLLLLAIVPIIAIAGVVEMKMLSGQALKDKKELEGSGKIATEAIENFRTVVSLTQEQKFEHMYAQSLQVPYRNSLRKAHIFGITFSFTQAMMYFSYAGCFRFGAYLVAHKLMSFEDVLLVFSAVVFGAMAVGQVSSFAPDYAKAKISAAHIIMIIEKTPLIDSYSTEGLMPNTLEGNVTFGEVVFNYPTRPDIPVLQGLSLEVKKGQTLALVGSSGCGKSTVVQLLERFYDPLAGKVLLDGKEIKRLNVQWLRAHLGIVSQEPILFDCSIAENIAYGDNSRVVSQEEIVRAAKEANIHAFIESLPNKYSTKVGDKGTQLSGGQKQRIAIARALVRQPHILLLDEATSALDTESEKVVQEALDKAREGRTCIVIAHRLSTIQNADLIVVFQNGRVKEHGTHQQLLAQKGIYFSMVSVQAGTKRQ

In the case of CCN(CC)Cc1cc(Nc2ccnc3cc(Cl)ccc23)ccc1O [AQ, amodiaquine], the P-gp inhibitory properties (P-gp [1]; at 100 and 1000 μM ref 38) is listed as “P-gp inhibitory properties”, the tmax ([2]; oral administration in human ref 46) is listed as < 1 h and the Papp at 120 min ([3]; drug alone, read-out: Ap-Bas directional Papp, range over concentrations tested) is listed as 16 to 22 ×10⁻⁶ cm/s. For the same compound, the Papp at 120 min [3, 6] was ~20 ×10⁻⁶ cm/s, the Papp at 120 min, 10 µM ([3]; Caco-2, Conc (μM) + inhibitor (μM): 10, first-named drug measured, read-out: Papp Ap-Bas) was 16 ± 1.1 ×10⁻⁶ cm/s and the Papp B→A at 120 min, 10 µM ([3]; Caco-2, Conc (μM) + inhibitor (μM): 10, first-named drug measured, read-out: Papp Bas-Ap) was 21.5 ± 0.9 ×10⁻⁶ cm/s. For the same compound, the Papp at 120 min, 100 µM ([3]; Caco-2, Conc (μM) + inhibitor (μM): 100, first-named drug measured, read-out: Papp Ap-Bas) was 22.5 ± 2 ×10⁻⁶ cm/s, the Papp B→A at 120 min, 100 µM ([3]; Caco-2, Conc (μM) + inhibitor (μM): 100, first-named drug measured, read-out: Papp Bas-Ap) was 23.3 ± 0.8 ×10⁻⁶ cm/s and the Net flow direction (Caco-2 cell monolayers; Conc (μM) + inhibitor (μM): 10) was “Efflux (0.02) ^*”. For the same compound, the Net flow direction (Caco-2 cell monolayers; Conc (μM) + inhibitor (μM): 100) was “Diffusion (0.74)”.

With C[C@H]1[C@H](OC(=O)CCC(=O)O)O[C@@H]2O[C@@]3(C)CC[C@H]4[C@H](C)CC[C@@H]1[C@@]24OO3 [ART, artesunate] the P-gp inhibitory properties (P-glycoprotein (P-gp); at 100 μM) was “did not exhibit P-gp inhibitory properties”, the P-gp inhibitory properties (P-glycoprotein (P-gp); at test concentrations) was “did not exhibit P-gp inhibitory properties” and the “regulation of P-gp expression” value (P-gp [4]) was “slight up regulation of P-gp”. It also gave a Papp at 120 min ([3]; read-out: permeability across the gastrointestinal epithelium (class)) of 1 to 25 ×10⁻⁶ cm/s, a Papp at 120 min [3, 6] of ~10 ×10⁻⁶ cm/s and an efflux ratio at 120 min, 50 µM ([3]; Caco-2, Conc (μM) + inhibitor (μM): 50, Bas-Ap divided by Ap-Bas) of 1.5. The Papp at 120 min, 50 µM ([3]; Caco-2, Conc (μM) + inhibitor (μM): 50, first-named drug measured, read-out: Papp Ap-Bas) was 10.2 ± 0.3 ×10⁻⁶ cm/s, the Papp B→A at 120 min, 50 µM ([3]; Caco-2, Conc (μM) + inhibitor (μM): 50, first-named drug measured, read-out: Papp Bas-Ap) was 12.3 ± 0.1 ×10⁻⁶ cm/s and the Net flow direction (Caco-2 cell monolayers; Conc (μM) + inhibitor (μM): 50) was “Efflux (0.002) ^*”. For the same compound, the Efflux ratio (Caco-2 cell monolayers; Conc (μM) + inhibitor (μM): 50, Bas-Ap divided by Ap-Bas) was 1.2.

For CN(C)c1ccc2nc3ccc(=[N+](C)C)cc-3sc2c1 [MB, methylene blue], the oral bioavailability ([2]; human volunteers, 100 mg ref 51) is listed as 10%.

For C/C=C/C[C@@H](C)C(=O)[C@H]1C(=O)N[C@@H](C(C)C)C(=O)N(C)CC(=O)N(C)[C@@H](CC(C)C)C(=O)N[C@@H](C(C)C)C(=O)N(C)[C@@H](CC(C)C)C(=O)N[C@@H](C)C(=O)N[C@H](C)C(=O)N(C)[C@@H](CC(C)C)C(=O)N(C)[C@@H](CC(C)C)C(=O)N(C)[C@@H](C(C)C)C(=O)N1C [PSC-833, PSC 833], the P-gp transport inhibition (P-gp [1]; at 4 μM ref 19) is given as “completely eradicate P-gp mediated transport”.

With COC(=O)c1ccccc1-c1c2ccc(=N)cc-2oc2cc(N)ccc12 [Rh123, rhodamine123] the “Efflux ratio of rh123” value (P-glycoprotein (P-gp); 5 μM rh123, 100 μM antimalarial drugs section) was 4.7, the efflux ratio at 120 min, 5 µM (P-glycoprotein (P-gp); human, Caco-2, probe rhodamine 123, 5 μM rh123, 100 μM antimalarial drugs section) was ~5 and the efflux ratio at 120 min, 5 µM (P-glycoprotein (P-gp); human, Caco-2, probe rhodamine 123, 5 μM rh123, 300 μM antimalarial drugs section) was 5.7. It also gave a Papp at 120 min, 5 µM (P-glycoprotein (P-gp); human, Caco-2, probe rhodamine 123, 5 μM rh123, 300 μM antimalarial drugs section, read-out: Papp of rh123 Ap-Bas) of 0.5 ± 0.1 ×10⁻⁶ cm/s.

In the case of C[C@H]1[C@H](OC(=O)CCC(=O)[O-])O[C@@H]2O[C@@]3(C)CC[C@H]4[C@H](C)CC[C@@H]1[C@@]24OO3.[Na+] [sodium artesunate], the Papp [5] is given as 4 ×10⁻⁶ cm/s.
